Measured values as given in US10456434B2, “Extracts obtained from cell line cultures from plants belonging to the Oleaceae family (e.g. Syringa vulgaris), their preparation and use” (CRODA ITALIANA S. P. A., priority 2005, dated 2019).

Key:
[1] = system: PC12 cells; experiment: Protection against oxidative stress induced cell death in PC12 cells; format: cell-based, rat; settings: 72 hours
Text: This assay has the aim of determining the protective capacity, of Syringa vulgaris extracts, in relation to oxidative stress induced cell death in rat pheochromocytoma cell cultures (PC12 cell line).
The assay has been performed as described in the literature (Echevery C. et al. Cytoprotection by neutral fraction of tannat red wine against oxidative stress-induced cell death. J. Agric. Food Chem., 2004, 52(24): 7395-9. Ochiai T. et al. Crocin prevents the death of rat pheo-chromycitoma (PC12) cells by its antioxidant effects stronger than those of alpha-tocopherol. Neurosci. Lett., 2004, 362(1):61-4).
The results obtained are summarised in table 11, and are expressed as the ratio between the numbers of viable cells after 72 hours in the samples with respect to control.

[2] = Peroxynitrite assay (SIN-1, PTIO spin trap, ESR); format: biochemical; settings: mean of 6 independent assays
Text: (§1) The superoxide anion has been measured by a chemiluminescent assay based on the hypoxanthine (HPX)/xanthine oxidase (XOD) reaction using the Lumimax Superoxide Anion Detection Kit (Stratagene, La Jolla, Calif., USA) and following the manufacturer's instructions. Hydroxyl radical scavenger activity has been measured by means of the Fenton reaction for the production of hydroxyl radicals and chemiluminescent dosage (using a Victor^3 chemiluminometer, Wallac, Finland) with luminol. Peroxynitrite ions have been determined by means of dosage with a spontaneous generator of peroxynitrites (3-morpholinosidnonimine hydrochloride; SIN-1) and a stable reagent for the nitroxyl ions (2-(4-carboxyphenyl)-4,4,5,5-tetramethylimidazoline-1-oxyl-3-oxide potassium salt PTIO spin trap) then dosed by means of electron spin resonance (ESR) using a. Nippon Denshi JES-FR30.
(§2) Extract 1 and Extract 2 listed in Table are derived from Syringa vulgaris cell cultures. […] The results are expressed as the concentration inhibiting 50% of activity (IC50). The values reported are the means of 6 independent assays.

[3] = system: A549 cells; experiment: Oxidative stress (ROS, DCF fluorescence) in A549 cell cultures; format: cell-based, human; settings: 20 mM, A549, galactose oxidative stress
Experimental: 10×10^5 A549 cells (ATCC-CCL195) have been seeded into wells with 3 ml of DMEM/medium (HAM'S F12K) with 10% FCS and incubated at 37° C. in a 5% CO2, water vapour saturated atmosphere. After 24 hours the culture medium is replaced by medium supplemented with 5.55 mM galactose, which is left in contact with the cells for 20 hours. The medium is once again replaced with medium containing galactose in the presence or absence of the test compound. After 5 hours, quantitative measurement of the ROSs is performed by washing the cells with phosphate buffer and then incubating them with 30 μM DCF-DA in buffer solution. At the end of a 15 minute incubation, excess DCF-DA is removed from the cells by washing, prior to measuring the fluorescence emitted.
Antioxidant activity measurements are performed using a (Hitachi F3010) spectrophotometer with excitation at 488 nm and measuring emission at 525 nm, and values are expressed in pmoles, by extrapolation from the calibration curve constructed using known quantities of DCF, in relation to total cellular protein. Values are thus expressed in % ages with respect to the ROS, content of the cells not subjected to oxidative stress, to which are assigned a value of 100.
Syringa vulgaris Extracts 1 and 2 and ascorbic acid have been dissolved in phosphate buffer.

[4] = Fe2+ induced lipid peroxidation (thiobarbituric acid); format: biochemical; settings: mean of 6 independent assays
Text: as §1, with “Syringa vulgaris Extracts 1 and 2, prepared as described in examples 1 and 2, have been used to assess in vitro antioxidant action with specific oxygen radical generating systems such as the superoxide anion (O2^−), the hydroxyl radical (HO), the peroxynitrite radical (ONOO^−) and the inhibition of lipid peroxidation. The” for “The”, “JES-FR30. […].” for “JES-FR30.”
(§3) Extract 1 and Extract 2 listed in Table are derived from Syringa vulgaris cell cultures. In said extracts, verbascoside is present at 0.82% and 35% by weight respectively. […]

[5] = Superoxide anion chemiluminescent assay (hypoxanthine/xanthine oxidase); format: biochemical; settings: mean of 6 independent assays
Text: as §1, §2

[6] = Hydroxyl radical scavenger activity (Fenton reaction, luminol chemiluminescence); format: biochemical; settings: mean of 6 independent assays
Text: as §1, with “Syringa vulgaris Extracts 1 and 2, prepared as described in examples 1 and 2, have been used to assess in vitro antioxidant action with specific oxygen radical generating systems such as the superoxide anion (O2^−), the hydroxyl radical (HO), the peroxynitrite radical (ONOO^−) and the inhibition of lipid peroxidation. The” for “The”, “JES-FR30. […].” for “JES-FR30.”
as §3

Peroxynitrite radical (IC50) [2]	Lipid peroxidation (IC50) [4]	Superoxide radical (IC50) [5]	Hydroxyl radial (IC50) [6]	Compound	Ratio of viable treated cells over control ([1]; 100 μg/ml)	Ratio of viable treated cells over control ([1]; 500 μg/ml)	Ratio of viable treated cells over control ([1]; 1000 μg/ml)	ROS level (%) [3]
–	–	–	–	CC1OC(OC2C(O)C(COC(=O)C=Cc3ccc(O)c(O)c3)OC(OCCc3ccc(O)c(O)c3)C2O)C(O)C(O)C1O [Isoverbascoside, b-(3,4-dihydroxyphenyl)-ethyl-O-α-L-ramnopyranosyl(1″-3′)-b-D-(6′-O-caffeoil)glucopyranoside]	4	10	10	–
1.6 µg/mL	7.4 µg/mL	3.1 µg/mL	2.2 µg/mL	C[C@@H]1O[C@@H](O[C@@H]2[C@@H](O)[C@H](OCCc3ccc(O)c(O)c3)O[C@H](CO)[C@H]2OC(=O)/C=C/c2ccc(O)c(O)c2)[C@H](O)[C@H](O)[C@H]1O [Verbascoside, b-(3,4-dihydroxyphenyl)-ethyl-O-α-L-ramnopyranosyl (1″-3′)-b-D-(4′-O-caffeoil)-glucopyranoside]	–	–	–	85 ± 7 %
